# Where “and” joins values, the source holds several entries; their conditions need not be identical. Equal values may be shown once.
# Test system: BDF1 mice, Adenocarcinoma 755 s.c., tumor weight T/C
# Experiment: NCI In Vivo Anticancer Drug Screen. Data for tumor model Adenocarcinoma 755 (subcutaneous) in B6D2F1 (BDF1) mice
# Conditions: endpoint: mean tumor weight, higher = larger tumour
# Protocol: The antitumor activity of compounds was measured in mice bearing transplantable tumors. Survival or tumor size were measured and the results are expressed as the measurement made in the treated group (T) divided by the measurement made in the vehicle treated control group (C). The tumor model used in this assay is Adenocarcinoma 755 (subcutaneous) in B6D2F1 (BDF1) mice
# [1] = dose: 25.0 mg/kg/injection, schedule: Q01DX011 (ip), vehicle: carboxymethylcellulose (CMC)
# [2] = dose: 50.0 mg/kg/injection, schedule: Q01DX011 (ip), vehicle: carboxymethylcellulose (CMC)
# [3] = dose: 100.0 mg/kg/injection, schedule: Q01DX011 (ip), vehicle: carboxymethylcellulose (CMC)
# [4] = dose: 200.0 mg/kg/injection, schedule: Q01DX011 (ip), vehicle: carboxymethylcellulose (CMC)
# [5] = dose: 125.0 mg/kg/injection, schedule: Q01DX011 (ip), vehicle: methylcellulose (MC)
# [6] = dose: 75.0 mg/kg/injection, schedule: Q01DX011 (ip), vehicle: methylcellulose (MC)
# [7] = dose: 60.0 mg/kg/injection, schedule: Q01DX011 (ip), vehicle: saline
# [8] = dose: 120.0 mg/kg/injection, schedule: Q01DX011 (ip), vehicle: saline
# [9] = dose: 12.5 mg/kg/injection, schedule: Q01DX011 (ip), vehicle: saline
# [10] = dose: 25.0 mg/kg/injection, schedule: Q01DX011 (ip), vehicle: saline
# [11] = dose: 75.0 mg/kg/injection, schedule: Q01DX011 (ip), vehicle: saline
structure (smiles),measurement,setting,value
COc1ccc(C(=O)OCC2OC(n3cnc4c(=S)nc(N)[nH]c43)C(OC(=O)c3ccc(OC)cc3)C2OC(=O)c2ccc(OC)cc2)cc1 (configuration not stated),T/C,[1],88 % of control
same,T/C,[2],107 % of control
same,T/C,[3],48 % of control
same,T/C,[4],7 % of control
Cc1cc(Nc2ccc(CCO)cc2)nc(N)n1,T/C,"dose: 15.0 mg/kg/injection, schedule: Q01DX011 (ip), vehicle: methylcellulose (MC)",64 % of control
same,T/C,"dose: 31.0 mg/kg/injection, schedule: Q01DX011 (ip), vehicle: methylcellulose (MC)",75 % of control
same,T/C,"dose: 62.0 mg/kg/injection, schedule: Q01DX011 (ip), vehicle: methylcellulose (MC)",77 % of control
same,T/C,[5],85 % of control
same,T/C,"dose: 250.0 mg/kg/injection, schedule: Q01DX011 (ip), vehicle: methylcellulose (MC)",73 % of control
S=c1nc[nH]c2c1ncn2C1CCCS1 (configuration not stated),T/C,[6],114 % of control
same,T/C,"dose: 225.0 mg/kg/injection, schedule: Q01DX011 (ip), vehicle: methylcellulose (MC)",43 % of control
CC(=O)[C@H]1[C@H](C)C[C@H]2[C@@H]3CCC4=CC(=O)CC[C@]4(C)[C@@]3(F)[C@@H](O)C[C@@]21C,T/C,"dose: 5.31 mg/kg/injection, schedule: Q01DX011 (sc), vehicle: steriod suspending solution",108 % of control
same,T/C,"dose: 6.0 mg/kg/injection, schedule: Q01DX011 (sc), vehicle: steriod suspending solution",62 % of control
same,T/C,"dose: 10.62 mg/kg/injection, schedule: Q01DX011 (sc), vehicle: steriod suspending solution",85 % of control
same,T/C,"dose: 12.0 mg/kg/injection, schedule: Q01DX011 (sc), vehicle: steriod suspending solution",27 % of control
same,T/C,"dose: 21.25 mg/kg/injection, schedule: Q01DX011 (sc), vehicle: steriod suspending solution",86 % of control
same,T/C,"dose: 25.0 mg/kg/injection, schedule: Q01DX011 (sc), vehicle: steriod suspending solution",23 % of control
same,T/C,"dose: 42.5 mg/kg/injection, schedule: Q01DX011 (sc), vehicle: steriod suspending solution",39 % of control and 48 % of control
same,T/C,"dose: 50.0 mg/kg/injection, schedule: Q01DX011 (sc), vehicle: steriod suspending solution",16 % of control
same,T/C,"dose: 85.0 mg/kg/injection, schedule: Q01DX011 (sc), vehicle: steriod suspending solution",17 % of control
same,T/C,"dose: 100.0 mg/kg/injection, schedule: Q01DX011 (sc), vehicle: steriod suspending solution",12 % of control
same,T/C,"dose: 170.0 mg/kg/injection, schedule: Q01DX011 (sc), vehicle: steriod suspending solution",18 % of control
same,T/C,"dose: 340.0 mg/kg/injection, schedule: Q01DX011 (sc), vehicle: steriod suspending solution",18 % of control and 23 % of control
same,T/C,"dose: 680.0 mg/kg/injection, schedule: Q01DX011 (sc), vehicle: steriod suspending solution",8 % of control and 26 % of control
same,T/C,"dose: 1360.0 mg/kg/injection, schedule: Q01DX011 (sc), vehicle: steriod suspending solution",4 % of control
Nc1nc(SCCc2ccccc2)c2[nH]cnc2n1,T/C,"dose: 31.25 mg/kg/injection, schedule: Q01DX011 (ip), vehicle: carboxymethylcellulose (CMC)",106 % of control
same,T/C,[2],97 % of control
same,T/C,"dose: 62.5 mg/kg/injection, schedule: Q01DX011 (ip), vehicle: carboxymethylcellulose (CMC)",52 % of control
same,T/C,[3],81 % of control
same,T/C,"dose: 125.0 mg/kg/injection, schedule: Q01DX011 (ip), vehicle: carboxymethylcellulose (CMC)",19 % of control
same,T/C,[4],74 % of control
same,T/C,"dose: 250.0 mg/kg/injection, schedule: Q01DX011 (ip), vehicle: carboxymethylcellulose (CMC)",6 % of control
same,T/C,"dose: 400.0 mg/kg/injection, schedule: Q01DX011 (ip), vehicle: carboxymethylcellulose (CMC)",75 % of control
same,T/C,"dose: 800.0 mg/kg/injection, schedule: Q01DX011 (ip), vehicle: carboxymethylcellulose (CMC)",22 % of control
CNc1ncnc2c1ncn2C1CC(O)C(CO)O1 (configuration not stated),T/C,[7],92 % of control
same,T/C,[8],94 % of control
CC(C)COC(=O)C1(N)CCCC1,T/C,[1],98 % of control
same,T/C,[2],33 % of control
same,T/C,[3],12 % of control
Cc1ncc(CO)c(C)c1O,T/C,[9],48 % of control
same,T/C,"dose: 22.78 mg/kg/injection, schedule: Q01DX011 (ip), vehicle: carboxymethylcellulose (CMC)",81 % of control
same,T/C,"dose: 25.0 mg/kg/injection, schedule: Q01DX011 (ip), vehicle: methylcellulose (MC)",98 % of control
same,T/C,[10],45 % of control
same,T/C,"dose: 45.57 mg/kg/injection, schedule: Q01DX011 (ip), vehicle: carboxymethylcellulose (CMC)",70 % of control
same,T/C,"dose: 50.0 mg/kg/injection, schedule: Q01DX011 (ip), vehicle: methylcellulose (MC)",75 % of control
same,T/C,"dose: 50.0 mg/kg/injection, schedule: Q01DX011 (ip), vehicle: saline",54 % of control
same,T/C,"dose: 59.07 mg/kg/injection, schedule: Q01DX011 (ip), vehicle: carboxymethylcellulose (CMC)",107 % of control
same,T/C,[11],50 % of control
same,T/C,"dose: 91.15 mg/kg/injection, schedule: Q01DX011 (ip), vehicle: carboxymethylcellulose (CMC)",76 % of control
same,T/C,"dose: 100.0 mg/kg/injection, schedule: Q01DX011 (ip), vehicle: methylcellulose (MC)",71 % of control
same,T/C,"dose: 100.0 mg/kg/injection, schedule: Q01DX011 (ip), vehicle: saline",22 % of control
same,T/C,"dose: 118.15 mg/kg/injection, schedule: Q01DX011 (ip), vehicle: carboxymethylcellulose (CMC)",108 % of control
same,T/C,[5],48 % of control
same,T/C,"dose: 150.0 mg/kg/injection, schedule: Q01DX011 (ip), vehicle: saline",30 % of control
same,T/C,"dose: 182.3 mg/kg/injection, schedule: Q01DX011 (ip), vehicle: carboxymethylcellulose (CMC)",72 % of control
same,T/C,"dose: 200.0 mg/kg/injection, schedule: Q01DX011 (ip), vehicle: methylcellulose (MC)",70 % of control
same,T/C,"dose: 236.3 mg/kg/injection, schedule: Q01DX011 (ip), vehicle: carboxymethylcellulose (CMC)",55 % of control
Nc1ncnc2c1cnn2CCCl,T/C,"dose: 1.5 mg/kg/injection, schedule: Q01DX011 (ip), vehicle: methylcellulose (MC)",79 % of control
same,T/C,"dose: 1.5 mg/kg/injection, schedule: Q01DX011 (ip), vehicle: saline",104 % of control
same,T/C,"dose: 3.1 mg/kg/injection, schedule: Q01DX011 (ip), vehicle: methylcellulose (MC)",31 % of control
same,T/C,"dose: 3.1 mg/kg/injection, schedule: Q01DX011 (ip), vehicle: saline",90 % of control
same,T/C,"dose: 4.0 mg/kg/injection, schedule: Q01DX011 (ip), vehicle: carboxymethylcellulose (CMC)",50 % of control and 65 % of control
same,T/C,"dose: 6.2 mg/kg/injection, schedule: Q01DX011 (ip), vehicle: methylcellulose (MC)",26 % of control and 33 % of control
same,T/C,"dose: 6.2 mg/kg/injection, schedule: Q01DX011 (ip), vehicle: saline",73 % of control
same,T/C,"dose: 12.5 mg/kg/injection, schedule: Q01DX011 (ip), vehicle: methylcellulose (MC)",9 % of control
same,T/C,[9],25 % of control
same,T/C,"dose: 16.0 mg/kg/injection, schedule: Q01DX011 (ip), vehicle: carboxymethylcellulose (CMC)",35 % of control
C[N+](C)(C)c1nc(N)nc2c1ncn2C1OC(CO)C(O)C1O (configuration not stated),T/C,"dose: 30.0 mg/kg/injection, schedule: Q01DX011 (ip), vehicle: saline",114 % of control
same,T/C,[7],101 % of control
same,T/C,[8],52 % of control
same,T/C,"dose: 240.0 mg/kg/injection, schedule: Q01DX011 (ip), vehicle: saline",24 % of control
same,T/C,"dose: 400.0 mg/kg/injection, schedule: Q01DX011 (ip), vehicle: saline",3 % of control
CC(=O)OCC1OC(n2ncc(=O)[nH]c2=O)C(OC(C)=O)C1OC(C)=O (configuration not stated),T/C,"dose: 187.5 mg/kg/injection, schedule: Q01DX011 (ip), vehicle: other",115 % of control
same,T/C,"dose: 375.0 mg/kg/injection, schedule: Q01DX011 (ip), vehicle: other",121 % of control
same,T/C,"dose: 1500.0 mg/kg/injection, schedule: Q01DX011 (ip), vehicle: other",43 % of control
CC(C)Cn1cnc2c(SCc3ccccc3)nc(N)nc21,T/C,"dose: 37.5 mg/kg/injection, schedule: Q01DX011 (ip), vehicle: methylcellulose (MC)",62 % of control
same,T/C,[6],27 % of control
same,T/C,"dose: 150.0 mg/kg/injection, schedule: Q01DX011 (ip), vehicle: methylcellulose (MC)",20 % of control
same,T/C,"dose: 300.0 mg/kg/injection, schedule: Q01DX011 (ip), vehicle: methylcellulose (MC)",4 % of control
COC1=NC2=NCCN2C(OC)=N1,T/C,[10],94 % of control
same,T/C,[11],69 % of control
same,T/C,"dose: 225.0 mg/kg/injection, schedule: Q01DX011 (ip), vehicle: saline",54 % of control

# Source: PubChem BioAssay AID180 (DTP/NCI, 2004)
